Source: patent publication US6825209B2, “Compounds having unique CB1 receptor binding selectivity and methods for their production and use” (Research Triangle Institute, priority 2002, dated 2004)
Where two headings read alike, the source gives them in different places. Marks after values point to notes of the source that are not given here.

Assays:
[1] = system: CB1 and CB2 receptors; details: literature, cited from earlier work
[2] = target: T1, human CB2 receptor (Homo sapiens, UniProt P34972); assay: Displacement of 3H-CP55,940 in human CB2 receptor-transfected cells (CHO-K1); assay type: binding; details: radioligand 3H-CP55940, Tables 6 and 7
T1 construct: expressed in transfected cells; host or cells: CHO-K1
Method: (§1) Human CB2 receptor affinity. The relative selectivity of the analogs for CB1 versus CB2 receptors varied modestly regardless of the structural modifications examined to date.
Methods—binding assay in transfected cell lines. The methods used for performing binding assays in transfected cells expressing human CB1 or CB2 receptors are those used above. The CB1 receptor involved a HEK-293 expression system whereas the CB2 receptor was expressed in CHO-K1 cells. […] The incubations and separations were then performed as described above for rat brain membrane preparations.
Data analysis. Saturation and displacement data were analyzed by unweighted nonlinear regression of receptor binding data. For displacement studies, curve-fitting and IC50 calculation were done with GraphPad Prism (GraphPad Software, Inc., San Diego, Calif.), which fits the data to one and two-site models and compares the two fits statistically. A similar approach was used for the analysis of isotherm data for calculation of Kd's. A two-site fit was accepted only if it was statistically significant (p<0.05) and the following results were not observed:
IC50 values were then converted to Ki values by reported methods (Cheng and Prusoff, 1973). The statistical evaluation of curve-fitting data allowed for a non-arbitrary conclusion based on the displacement data.

[3] = target: T2, human CB1 receptor (Homo sapiens, UniProt P21554); assay: Radioligand displacement in human CB1 receptor-transfected cells (HEK-293); assay type: binding
T2 construct: expressed in transfected cells; host or cells: HEK-293
Summary of the method: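 Radioligand displacement was run on HEK-293 cells expressing human CB1, with incubation and separation as for rat brain membranes. IC50 values came from one- or two-site nonlinear regression and were converted to Ki by Cheng-Prusoff.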

[4] = target: T3, G-protein-linked cannabinoid receptors (Rattus norvegicus, UniProt P20272); assay: GTP-γ-[35S] binding in whole rat brain; assay type: biochemical; details: for Emax: read-out: Emax, GTP-γ-[35S] in Whole Rat Brain
T3 construct: tissue Charles River or Pel-Freez Biologicals; host or cells: whole rat brain crude membrane homogenate
Source text: Cannabinoid receptor-mediated alteration in GTP-γ-[^35S] binding.
(§2) Introduction. The purpose of this assay was to characterize the functional activity of lead compounds identified by the radioligand competition binding assays described above. Data from the GTP-γ-[^35S] binding assay was used to determine if a compound was an agonist, antagonist or inverse agonist at G-protein-linked cannabinoid receptors. Agonist binding to a G-protein-linked receptor results in an increased affinity of the G-protein α-subunit for GTP relative to GDP. Eventually, an active αGTP complex forms to complete the stimulus-effector coupling. The α-subunit has intrinsic GTPase activity which generates a free α-subunit which can recombine with the β- and γ-subunits readying the G-protein for another signal transduction cycle. In the current assay, GTP-γ-[^35S] cannot be hydrolyzed by the α-subunit. Thus, the amount of bound GTP-γ-[^35S] is a marker for G-protein activation. In this assay, an agonist increases basal GTP-γ-[^35S] binding, an inverse agonist decreases basal binding and basal binding would be unaffected by an antagonist.
Experimental Design. The specific binding of GTP-γ-[^35S], in the absence of test compound, was termed “basal” activity. Test compounds were characterized as agonist, antagonist, or inverse agonist based on their effect on basal activity. […] The concentrations spanned two orders of magnitude because affinity may not be related to efficacy. […] Effects of the test compounds are reported as the percent change from basal. More thorough dose-response analysis may be run to determine, for example, if a compound is a full or partial agonist.
Methods. […] In a final volume of 0.5 mL, each assay tube contained: 0.02 mg crude membrane homogenate (0.1 mL), 200 μM GDP (0.05 mL; to reduce basal G-protein activity), 0.1 nM GTP-γ-[^35S] (0.05 mL) and several concentrations of test compound (0.05 mL) or an equivalent volume of vehicle (used for determination of total binding). Nonspecific binding was determined in the presence of 100 μM unlabeled GTP-γ-S (0.05 mL). Duplicate samples were incubated for 1 h at 30° C. Since this assay is amenable for use with high throughput screening methods, the binding assays were run using a 96-well plate format. Specific binding was calculated as total binding-nonspecific binding.

[5] = target: T4, CB1 receptor (Rattus norvegicus, UniProt P20272); assay: Radioligand displacement in whole rat brain (CB1) membrane preparations; assay type: binding; details: Tables 1 and 2
T4 construct: Whole rat brains or dissected regions from live CD rats; tissue Charles River or Pel-Freez Biologicals; host or cells: whole rat brain (CD rats), P2 membrane
Summary of the method: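 Washed P2 membranes from whole rat brain (ca. 0.2 mg/mL) in 50 mM Tris.HCl, 1 mM EDTA, 3 mM MgCl2, pH 7.4 were incubated with radioligand and compound for 1 h at 30 °C, then filtered. IC50 values came from one- or two-site nonlinear fits and were converted to Ki by Cheng-Prusoff. Duplicates were run across 3–6 experiments.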

[6] = system: CB1 versus CB2 receptors; assay: Relative selectivity of the analogs for CB1 versus CB2 receptors; details: CB1 versus CB2 binding, Tables 1, 6 and 7
Source text: as §1

[7] = target: T5, CB1 (human) clone receptors (Homo sapiens, UniProt P21554); assay: GTP-γ-[35S] binding in CB1 (human) clone receptors; assay type: biochemical; details: assay run in CB1 (human) clone receptors
T5 construct: expressed in transfected cells
Source text: Cannabinoid receptor-mediated alteration in GTP-γ-[^35S] binding. In addition to assessing CB1 and CB2 receptor affinities, all of the compounds have been screened in the GTP-γ-[^35S] assay to begin characterization of the compounds as agonists, partial agonists, antagonists or inverse agonists.
as §2, with “In the current assay, GTP-γ-[^35S] cannot be hydrolyzed by the α-subunit. Thus, the amount of bound GTP-γ-[^35S] is a marker for G-protein activation. In this assay, an agonist increases basal GTP-γ-[^35S] binding, an inverse agonist decreases basal binding and basal binding would be unaffected by an antagonist.” left out
Methods. Binding was determined using membrane homogenates from whole brain The assays were conducted as previously described (Sim et al. 1996) on brain tissue prepared as described above. […] Nonspecific binding was determined in the presence of 100 μM unlabeled GTP-γ-S (0.05 mL). […] Specific binding was calculated as total binding-nonspecific binding.

[8] = read-out: Ki, displacement of 3H-CP55940, human CB2 transfected cells
[9] = Ki, displacement of 3H-SR141716A
[10] = Ki, displacement of 3H-WIN55212-2
[11] = EC50, GTP-γ-[35S] in Whole Rat Brain, whole rat brain membranes, inverse agonist/antagonist activity
[12] = Ki, displacement of 3H-WIN55212-2, whole rat brain membranes, radioligand 3H-WIN55212-2
[13] = read-out: Ki, displacement of 3H-CP55940, whole rat brain membranes, radioligand 3H-CP55940
[14] = read-out: Ki, displacement of 3H-SR141716A, whole rat brain membranes, radioligand 3H-SR141716A
[15] = whole rat brain membranes, radioligand 3H-CP55940
[16] = whole rat brain membranes, radioligand 3H-SR141716A
[17] = whole rat brain membranes, radioligand 3H-WIN55212-2
[18] = Ki, displacement of 3H-CP55940, human CB2 transfected cells
[19] = Ki, displacement of 3H-CP55940, whole rat brain membranes, radioligand 3H-CP55940
[20] = Ki, displacement of 3H-SR141716A, whole rat brain membranes, radioligand 3H-SR141716A

T1 sequence (P34972 whole entry): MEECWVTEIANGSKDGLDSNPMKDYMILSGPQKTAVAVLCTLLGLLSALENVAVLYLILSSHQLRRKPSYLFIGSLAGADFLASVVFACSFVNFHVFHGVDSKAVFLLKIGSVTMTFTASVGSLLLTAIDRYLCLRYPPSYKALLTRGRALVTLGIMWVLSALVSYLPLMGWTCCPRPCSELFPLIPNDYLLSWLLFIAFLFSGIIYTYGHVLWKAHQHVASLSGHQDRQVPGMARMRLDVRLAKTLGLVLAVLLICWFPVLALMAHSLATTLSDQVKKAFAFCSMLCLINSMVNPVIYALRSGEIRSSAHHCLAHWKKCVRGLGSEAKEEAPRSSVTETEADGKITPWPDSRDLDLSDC
T3 sequence (P20272 whole entry): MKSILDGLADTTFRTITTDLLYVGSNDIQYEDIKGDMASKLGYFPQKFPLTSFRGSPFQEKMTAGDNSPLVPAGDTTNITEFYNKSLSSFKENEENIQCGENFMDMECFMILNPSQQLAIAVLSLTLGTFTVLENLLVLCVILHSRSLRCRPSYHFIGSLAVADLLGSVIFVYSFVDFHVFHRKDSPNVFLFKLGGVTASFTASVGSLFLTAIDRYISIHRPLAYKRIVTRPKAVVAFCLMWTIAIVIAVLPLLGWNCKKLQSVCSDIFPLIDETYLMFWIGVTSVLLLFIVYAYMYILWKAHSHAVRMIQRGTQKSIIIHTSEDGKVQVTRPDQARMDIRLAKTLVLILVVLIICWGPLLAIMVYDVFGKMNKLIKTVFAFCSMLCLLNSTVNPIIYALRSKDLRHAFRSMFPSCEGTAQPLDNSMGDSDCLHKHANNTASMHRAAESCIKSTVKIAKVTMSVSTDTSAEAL
T4 sequence (P20272 whole entry): as above
T2 sequence (P21554 whole entry): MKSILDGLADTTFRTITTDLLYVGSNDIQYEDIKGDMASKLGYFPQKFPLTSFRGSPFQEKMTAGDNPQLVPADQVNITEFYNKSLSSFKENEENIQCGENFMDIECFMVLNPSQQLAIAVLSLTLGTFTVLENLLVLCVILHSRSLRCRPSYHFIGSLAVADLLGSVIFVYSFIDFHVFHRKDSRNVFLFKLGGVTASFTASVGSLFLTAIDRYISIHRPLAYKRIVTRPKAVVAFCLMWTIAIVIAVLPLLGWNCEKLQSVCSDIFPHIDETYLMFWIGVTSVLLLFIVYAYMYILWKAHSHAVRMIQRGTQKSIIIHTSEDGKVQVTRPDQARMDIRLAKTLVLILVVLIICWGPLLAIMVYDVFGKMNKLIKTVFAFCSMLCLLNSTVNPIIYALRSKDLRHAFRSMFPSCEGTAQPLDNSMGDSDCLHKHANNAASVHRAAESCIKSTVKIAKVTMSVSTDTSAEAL
T5 sequence (P21554 whole entry): as above

SMILES | Max. Disp. %, 3H-CP55940 ([2]; human CB2 transfected cells) [%] | Ki [2, 8] [µM] | Max. Disp. %, 3H-CP55940 [3] [%] | Max. Disp. %, 3H-SR141716A [3] [%] | Max. Disp. %, 3H-WIN55212-2 [3] [%] | Ki ([3]; Ki, displacement of 3H-CP55940) [µM] | Ki [3, 9] [µM] | Ki [3, 10] [µM] | Emax [4] [%] | Ki [5, 12] [µM] | Ki [5, 13] [µM] | Ki [5, 14] [µM] | Max. Disp. %, 3H-CP55940 [5, 15] [%] | Max. Disp. %, 3H-SR141716A [5, 16] [%] | Max. Disp. %, 3H-WIN55212-2 [5, 17] [%] | other results
CCCCCCC(C)(C)c1ccc([C@@H]2C[C@H](O)CC[C@H]2CCCO)c(O)c1 [CP55,940] |  |  |  |  |  |  |  |  |  |  |  |  |  |  |  | affinity at CB1 and CB2 receptor sites [1]: approximately equal affinity
CCCCCNC(=O)c1nn(-c2ccc(Cl)cc2Cl)c(-c2ccc(Cl)cc2)c1C [MF9725-67-17] | 75.9 | 1.11 | 87.1 | 89.9 | 89.9 | 0.0146 | 0.00635 | 0.0187 | -7.4 | 0.0126 | 0.0114 | 0.00683 | 91.4 | 100 | 94.4 | EC50 [4, 11]: 5.27 µM
Cc1c(C(=O)NCCO)nn(-c2ccc(Cl)cc2Cl)c1-c1ccc(Cl)cc1 [MF9725-93-31] | 33.3 | 4.27 |  |  |  |  |  |  |  |  | 0.385 | 0.343 | 73.2 | 85.5 |  | CB1 selectivity (CB1 versus CB2) [6]: 10 fold; Emax ([4]; whole rat brain membranes, effects reported as percent change from basal): -76.5%; EC50 ([4]; whole rat brain membranes, value above highest concentration tested (footnote), read-out: EC50, GTP-γ-[35S] in Whole Rat Brain, value is above highest concentration on displacement curve): ≥ 1670 µM
CCCCCCCCNC(=O)c1nn(-c2ccc(Cl)cc2Cl)c(-c2ccc(Cl)cc2)c1C [MF9879-164-28] | 45.3 |  | 70.6 | 67.8 | 35.2 | 0.288 | 0.0447 | 0.267 | -21.3 | 0.0362 |  |  | 80.2 | 75.2 | 68.4 | Ki [2, 18]: 98.4 µM; EC50 [4]: ≥ 677 µM; Ki [5, 19]: 0.135 µM; Ki [5, 20]: 0.0374 µM
CCCCCCCCCNC(=O)c1nn(-c2ccc(Cl)cc2Cl)c(-c2ccc(Cl)cc2)c1C [MF10110-10-21] | 53.8 |  | 68.8 | 86.9 | 28.3 | 0.307 | 0.0565 | 3.55 | -20.1 | 0.0682 |  |  | 79.5 | 85.8 | 68.6 | Ki [2, 18]: 22.9 µM; EC50 [4, 11]: 294 µM; Ki [5, 19]: 0.333 µM; Ki [5, 20]: 0.0882 µM
CCOC(=O)c1nn(-c2ccc(Cl)cc2Cl)c(-c2ccc(Cl)cc2)c1C [SH9631-56] | 51.4 | 4.4 |  |  |  |  |  |  |  |  | 0.0318 | 0.0289 | 91.7 | 96.9 |  | Max. Disp. %, 3H-CP55940 ([3]; human CB1 transfected cells, radioligand 3H-CP55940, Table 3): 91.0%; Ki ([3]; read-out: Ki, displacement of 3H-CP55940): 0.0448 µM; EC50 [7]: 0.195 µM; Emax, GTP-γ-[35S] ([7]; percent change from basal): −18.4^c
Cc1c(C(=O)NN2CCCCC2)nn(-c2ccc(Cl)cc2Cl)c1-c1ccc(Cl)cc1 [SR141716A] |  |  |  |  |  |  |  |  |  |  |  |  |  |  |  | Ki for CB1 lower than for CB2 ([1]; selectivity for the CB1 over the CB2 receptor): over 50 fold
